Measurements taken from PMC12040169 (PLOS Biology, 2025).

Experiment: in vitro
Details: human, hela cells, % viability

| SMILES | viability at 28.5 h, 10 µM [%] |
| --- | --- |
| COc1ccccc1CN(CC(C)(C)CN)C(=O)Nc1ccc(C)c([N+](=O)[O-])c1 [CBK026816C] | 98.8 |
| CC(C)(CN)CN(Cc1ccccc1C(F)(F)F)C(=O)Nc1c(F)cccc1F [CBK026822C] | 109 |
| CC(C)(CN)CN(Cc1ccccc1C(F)(F)F)C(=O)Nc1ccc(C(C)(C)C)cc1 [CBK026828C] | 92.4 |
| Cc1ccc(SCS(=O)(=O)c2ccc(C)cc2)cc1 [CBK026853] | 97.8 |
| Clc1ccccc1CSc1nc[nH]n1 [CBK026950] | 98.5 |
| CCCCSc1nnc(-c2ccc(Br)cc2)o1 [CBK027012] | 117 |
| O=C(CSc1ncn(-c2ccccc2)n1)c1ccc(Br)cc1 [CBK027014] | 91.6 |
| c1ccc2sc(-n3cncn3)nc2c1 [CBK027022] | 92.2 |
| CCN(CC(=O)N1CCN(C(=O)c2ccc(C)cc2)CC1)C(=O)OC [CBK027051] | 82 |
| CC(=O)Nc1cccc2c1NSN2 [CBK027082] | 92.1 |
| CCCCNC(=O)NC1CCCC1 [CBK027084] | 101 |
| CC(NC(=O)C1CC=CCC1C(=O)O)C1CC2CCC1C2 (stereo not shown) [CBK027112] | 114 |
| COc1cccc(OCC(O)CN(C)S(=O)(=O)O)c1 (stereo not shown) [CBK027121N] | 89.9 |
| CNCCc1ccccc1Sc1ccccc1 [CBK027155G] | 102 |
| CCOC(=O)N1N=C(c2ccc(F)cc2)CC1(O)C(F)(F)F (stereo not shown) [CBK027156] | 111 |
| CCCCCC1=NN(C(=O)c2ccccc2Br)C(O)(C(F)(F)F)C1 (stereo not shown) [CBK027223] | 104 |
| C1=CC2CC1CC2CN1CCN(Cc2cccnc2)CC1 (stereo not shown) [CBK027284] | 100 |
| COc1nc(NCCN2CCOCC2)nc(Nc2ccccc2)n1 [CBK027298] | 102 |
| CC1=CC(C)C(C(=O)O)C(C(=O)N2CCN(C)CC2)C1 (stereo not shown) [CBK027311G] | 97.7 |
| CC(=O)Nc1nnn(CCOc2nonc2C)n1 [CBK027320] | 90.2 |
| COc1ccc(CN2CCOCC2)cc1Br [CBK027346] | 80.8 |
| CCC1(C)CC(C(CCN)c2ccc(C)cc2)CCO1 (stereo not shown) [CBK027350] | 98.8 |
| CCCCC1CCC(c2noc(-c3ccc(F)cc3)n2)CC1 (stereo not shown) [CBK027363] | 90.3 |
| Cc1cc(Nc2ccc(I)cc2)n2ncnc2n1 [CBK027364] | 100 |
| OCCN1CCN(CC(O)COCC2COc3ccccc3O2)CC1 (stereo not shown) [CBK027374C] | 97.3 |
| Cn1c(=O)oc2cc(Br)ccc21 [CBK027375] | 108 |

| SMILES | viability at 28.5 h, 10 µM [%] |
| --- | --- |
| Cc1cc(=O)n(C)c(=O)n1CCCCCN1CCCC1 [CBK027386] | 99.9 |
| Cc1cc(C)n2c(SCC(=O)O)nnc2n1 [CBK027406] | 108 |
| Clc1nc(NCCN2CCOCC2)nc(N2CCCCCC2)n1 [CBK027412] | 98.9 |
| CC(C)Nc1nc(C#N)nc(NC(C)C)n1 [CBK027421] | 84.7 |
| CCCCC1CCC(C(=O)Nc2ncccn2)CC1 (stereo not shown) [CBK027423] | 113 |
| Clc1ccc(C2NCCS2)c(Cl)c1 (stereo not shown) [CBK027425] | 102 |
| COC(=O)Nc1nc(Cl)cc(Cl)n1 [CBK027433] | 93.8 |
| CN(C)CCCOC(=O)c1cccnc1Cl [CBK027436] | 111 |
| Cn1c(=O)c(C(N)=O)c(O)c2ccccc21 [CBK027440] | 78.6 |
| CCOc1ccc(CSC2=NCCN2)cc1Cl [CBK027449C] | 92.4 |
| COc1nc(NCc2ccco2)nc(OC)n1 [CBK027479] | 86.4 |
| CN(CCOC(=O)c1cccs1)C(C)(C)C [CBK027559C] | 88.6 |
| O=C(Nc1ncccn1)C1CCCCC1 [CBK027567] | 98.3 |
| O=C(NCCO)Nc1ccc2nccnc2c1 [CBK027577] | 71.5 |
| CC1(C)CC(=O)C=C(NCC2CCNCC2)C1 [CBK027580] | 87.9 |
| Cc1cc(=O)n(C)c(=O)n1CCCN1CCCCC1 [CBK027584] | 115 |
| CCCCSc1nnc2nc(C)cc(C)n12 [CBK027588] | 98.2 |
| Fc1ccc(-n2cnnn2)cc1 [CBK027592] | 110 |
| O=C(Nn1cnnc1)c1ccccc1F [CBK027603] | 106 |
| Cn1c(=O)c2[nH]c(N3CCCCC3)nc2n(C)c1=O [CBK027630] | 86.1 |
| OCCCNCC(O)CN1c2ccccc2Sc2ccccc21 (stereo not shown) [CBK027632G] | 98.4 |
| [O-][S+]1c2ccccc2Oc2ccccc21 [CBK027634] | 94.7 |
| CCOC(=O)c1c(-n2cnnn2)sc(C)c1C [CBK027660] | 93.6 |
| Clc1cccc(-n2cnnn2)c1Cl [CBK027665] | 77.7 |
| CC(C)Nc1nc(Cl)nc(Nc2ccc(I)cc2)n1 [CBK027685] | 97.6 |
| Nc1nonc1OCCCCOc1nonc1N [CBK027716] | 110 |

| SMILES | viability at 28.5 h, 10 µM [%] |
| --- | --- |
| O=c1[nH]c(=O)c2c3c(sc2[nH]1)CCCC3 [CBK027724] | 67.6 |
| CCOC(=O)c1[nH]c(=O)[nH]c1CSc1ccccn1 [CBK027725] | 94 |
| Cc1nnc2nc(-c3ccc(Cl)cc3Cl)[nH]n12 [CBK027731] | 88.1 |
| CC(C)Nc1nc(NC(C)C)nc(N(C)C(N)=O)n1 [CBK027732] | 90.2 |
| CCNc1nc(C#N)nc(Nc2ccccc2)n1 [CBK027733] | 86.1 |
| c1ccc(CSc2nc3ccccc3s2)nc1 [CBK027737] | 76.2 |
| COC(=O)NC(O)C(=O)c1cccs1 (stereo not shown) [CBK027755] | 93.8 |
| COC(=O)NC(O)C(=O)c1ccco1 (stereo not shown) [CBK027757] | 94.7 |
| O=c1[nH]nc(SCc2ccccc2Cl)c(=S)[nH]1 [CBK027795] | 117 |
| Cc1cc(=O)n2c(c1C#N)SCC2 [CBK027807] | 102 |
| COCC(C)NCc1ccccc1C (stereo not shown) [CBK027852] | 115 |
| CNCc1cc(Br)ccc1OC [CBK027857] | 113 |
| O=C(c1cc[nH]n1)N1CCOCC1 [CBK027868] | 89.2 |
| CCOc1cc(/C=N/Nc2nncn2N)cc(I)c1O [CBK027879] | 93.6 |
| COC(=O)N/N=C(\C)c1ccc(Br)s1 [CBK027886] | 103 |
| COc1ccc(CCC(=O)Nc2nnc[nH]2)cc1 [CBK027896] | 101 |
| COc1ccc(-c2nc(=S)c3c(n2CCCO)CCCC3)cc1 [CBK027898] | 88.7 |
| Cc1nc2ccccc2c(O)c1CN1CCN(C)CC1 [CBK027922] | 119 |
| NC(=O)c1c(NC(=O)Cn2cnc([N+](=O)[O-])n2)sc2c1CCCC2 [CBK027935] | 98.6 |
| O=C(Nc1nn[nH]n1)C1CCCCC1 [CBK027955] | 112 |
| O=c1nc(O)c2ccccc2s1 [CBK027968] | 94.9 |
| CCOc1ccc(/C=C2\SC(=O)NC2=S)cc1 [CBK027996] | 90.9 |
| CCCc1nnc(SCC(=O)Nc2cccc(C(F)(F)F)c2)n1N [CBK028004] | 104 |
| CC(C)C(c1nnnn1Cc1ccccc1)N1CCOCC1 (stereo not shown) [CBK028054] | 117 |
| Cc1ccc(S(=O)(=O)N(CCC#N)CCN2CCCC2)cc1 [CBK028055] | 119 |
| COc1cccc(CCNCC(O)COc2ncnc3ccccc23)c1 (stereo not shown) [CBK028127T] | 93.1 |

| SMILES | viability at 28.5 h, 10 µM [%] |
| --- | --- |
| COc1ccc([C@@]23CCC(NC(=S)NCc4ccccc4)C[C@@H]2N(Cc2ccccc2)CC3)cc1 (stereo partly shown) [CBK028140] | 88 |
| C#CCn1nnc2ccccc21 [CBK028164] | 104 |
| O=S1(=O)NC=Nc2ccccc21 [CBK028171] | 112 |
| O=C(NC(=S)Nn1cnnc1)c1ccccc1 [CBK028188] | 125 |
| FC(F)(F)c1nc2ccccc2[nH]1 [CBK028224] | 84.5 |
| C[S+]([O-])c1nc2ccccc2s1 (stereo not shown) [CBK028233] | 93.5 |
| O=C(Nc1cccc(N2CCNCC2)c1)c1ccccc1 [CBK028255T] | 114 |
| O=C(CCCOc1ccccc1)Nc1cccnc1N1CCNCC1 [CBK028258T] | 97.3 |
| O=C(CCS(=O)(=O)c1ccccc1)Nc1cccnc1N1CCNCC1 [CBK028262T] | 103 |
| CN(CC(=O)Nc1cccnc1N1CCNCC1)C(=O)c1ccccc1 [CBK028264T] | 95.8 |
| O=C(Nc1ccc(N2CCNCC2)nc1)C1(c2ccccc2)CCCCC1 [CBK028269T] | 97.8 |
| O=C(CCCOc1ccccc1)Nc1ccc(N2CCNCC2)nc1 [CBK028270T] | 98.2 |
| O=C(COc1ccccc1)Nc1cccc(N2CCNCC2)c1 [CBK028271T] | 100 |
| COc1ccc(CCCC(=O)Nc2ccc(N3CCNCC3)nc2)cc1OC [CBK028272T] | 82.4 |
| O=C(Nc1ccc(N2CCNCC2)nc1)c1ccccc1 [CBK028277T] | 114 |
| O=C(CCC(=O)c1ccccc1)Nc1ccccc1N1CCNCC1 [CBK028284T] | 92.9 |
| CN(CC(=O)Nc1ccccc1N1CCNCC1)C(=O)c1ccccc1 [CBK028287T] | 99.3 |
| O=C(NCc1ccccc1OC1CCNC1)c1ccccc1 (stereo not shown) [CBK028301T] | 114 |
| C[C@H]1CC[C@H](C(=O)N2CCC[C@H]2C(=O)O)CC1 [CBK028320] | 81.9 |
| Cc1ccc2c(c1)CCCN2C(=O)c1csc2c(C(F)(F)F)cc(N3CCOCC3)nc12 [CBK028367] | 116 |
| COc1ccc(CCCC(=O)Nc2cc3ccccc3c(N3CCNCC3)n2)cc1OC [CBK028417T] | 90.3 |
| O=C(CCC(=O)c1ccccc1)Nc1cc2ccccc2c(N2CCNCC2)n1 [CBK028418T] | 106 |
| O=C(CCS(=O)(=O)c1ccccc1)Nc1cc2ccccc2c(N2CCNCC2)n1 [CBK028419T] | 88.1 |
| O=C(Nc1cc2ccccc2c(N2CCNCC2)n1)c1ccccc1 [CBK028423T] | 104 |
| COc1ccc(CCCC(=O)NCc2ccc(OC3CCNCC3)cc2)cc1OC [CBK028428T] | 94.9 |
